Source: article PMC10797613 (ACS Chemical Neuroscience, 2024)
Values joined by “and” are separate entries in the source; they are usually repeats but may differ in a detail not shown here. Equal entries are not always repeated. Where two headings read alike, the source gives them in different places.

What was measured:
C57BL/6J mice [1] = experiment: mouse head twitch response; assay type: in vivo; conditions: for time of peak HTR effects / Emax(HTR events/30 min) / ED50(mg/kg s.c.) for HTR: mice; for time of peak HTR effects: post drug administration; for Emax(HTR events/30 min) / ED50(mg/kg s.c.) for HTR: s.c.; for Emax(HTR events/30 min): maximum effect; for ED50(mg/kg s.c.) for HTR: 30 min session, ascending phase of HTR curve; for HTR activity (in words): mouse, in vivo
H1 = H1 (Homo sapiens, UniProt P35367); experiment: biochemical; assay type: binding
5-HT2B receptor = 5-HT2B receptor (Homo sapiens, UniProt P41595); experiment: Gαq-mediated calcium flux assay; assay type: cell-based; conditions: 95% CI in brackets; * = potentially ambiguous
C57BL/6J mice [2] = experiment: locomotor activity; assay type: in vivo, mouse; conditions: s.c., 30 min testing session
5-HT2A receptor = 5-HT2A receptor (Homo sapiens, UniProt P28223); experiment: Gαq-mediated calcium flux assay; assay type: cell-based; conditions: read-out: Emax (% 5-HT) 5-HT2A calcium flux, 95% CI in brackets
5-HT1B = 5-HT1B (Homo sapiens, UniProt P28222); experiment: GPCR Tango assay measuring β-arrestin recruitment; assay type: cell-based; conditions: up to 50 μM
5-HT2C receptor = biological target: T1, 5-HT2C receptor (Homo sapiens, UniProt P28335); experiment: Gαq-mediated calcium flux assay; assay type: cell-based
T1 sequence (P28335 33-458): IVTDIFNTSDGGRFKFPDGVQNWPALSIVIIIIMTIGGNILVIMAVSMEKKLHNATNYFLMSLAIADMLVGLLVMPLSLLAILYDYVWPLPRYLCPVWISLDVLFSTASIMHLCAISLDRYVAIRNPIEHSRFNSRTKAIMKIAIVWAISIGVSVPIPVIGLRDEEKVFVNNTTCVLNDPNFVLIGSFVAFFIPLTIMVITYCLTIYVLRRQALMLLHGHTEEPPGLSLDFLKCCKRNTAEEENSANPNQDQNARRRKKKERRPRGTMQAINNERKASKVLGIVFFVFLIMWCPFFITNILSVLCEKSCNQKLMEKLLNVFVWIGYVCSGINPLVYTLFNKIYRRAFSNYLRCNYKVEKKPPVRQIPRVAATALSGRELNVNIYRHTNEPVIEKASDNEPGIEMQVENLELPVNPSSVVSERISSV

C57BL/6J mice [3] = experiment: body temperature change from pre to post session in mice; assay type: in vivo, mouse; conditions: highest dose tested
5-HT7A = 5-HT7A (Homo sapiens, UniProt P34969); experiment: GPCR Tango assay measuring β-arrestin recruitment; assay type: cell-based; conditions: EC50 5-HT7A Tango, 95% CI in brackets; * = ambiguous
C57BL/6J mice [4] = conditions: cited from earlier work
[5] = s.c., identical testing conditions

5-HT1B, sequence (P28222 whole entry): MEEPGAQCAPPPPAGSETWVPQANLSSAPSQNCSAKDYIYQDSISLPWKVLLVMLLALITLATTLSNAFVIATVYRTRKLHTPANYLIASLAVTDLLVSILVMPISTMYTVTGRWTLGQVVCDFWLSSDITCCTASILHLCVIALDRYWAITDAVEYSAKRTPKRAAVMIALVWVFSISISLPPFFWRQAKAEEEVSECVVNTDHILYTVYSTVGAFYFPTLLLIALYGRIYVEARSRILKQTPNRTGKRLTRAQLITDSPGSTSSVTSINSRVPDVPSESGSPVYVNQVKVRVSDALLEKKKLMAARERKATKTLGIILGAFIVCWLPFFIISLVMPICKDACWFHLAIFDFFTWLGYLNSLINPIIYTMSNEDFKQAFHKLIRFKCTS
5-HT2B receptor, sequence (P41595 whole entry): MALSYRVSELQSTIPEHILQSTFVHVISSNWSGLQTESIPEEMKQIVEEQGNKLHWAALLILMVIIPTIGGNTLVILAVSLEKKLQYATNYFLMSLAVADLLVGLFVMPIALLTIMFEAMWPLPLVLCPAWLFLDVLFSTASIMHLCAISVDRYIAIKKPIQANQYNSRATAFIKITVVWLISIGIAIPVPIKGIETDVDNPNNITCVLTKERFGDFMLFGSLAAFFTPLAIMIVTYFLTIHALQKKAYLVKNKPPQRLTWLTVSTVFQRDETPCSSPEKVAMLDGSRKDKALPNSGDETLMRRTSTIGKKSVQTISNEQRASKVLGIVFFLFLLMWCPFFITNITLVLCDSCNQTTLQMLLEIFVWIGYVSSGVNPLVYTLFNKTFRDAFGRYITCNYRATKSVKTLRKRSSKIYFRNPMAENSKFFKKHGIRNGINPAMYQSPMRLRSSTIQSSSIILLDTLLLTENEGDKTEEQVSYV
5-HT2A receptor, sequence (P28223 whole entry): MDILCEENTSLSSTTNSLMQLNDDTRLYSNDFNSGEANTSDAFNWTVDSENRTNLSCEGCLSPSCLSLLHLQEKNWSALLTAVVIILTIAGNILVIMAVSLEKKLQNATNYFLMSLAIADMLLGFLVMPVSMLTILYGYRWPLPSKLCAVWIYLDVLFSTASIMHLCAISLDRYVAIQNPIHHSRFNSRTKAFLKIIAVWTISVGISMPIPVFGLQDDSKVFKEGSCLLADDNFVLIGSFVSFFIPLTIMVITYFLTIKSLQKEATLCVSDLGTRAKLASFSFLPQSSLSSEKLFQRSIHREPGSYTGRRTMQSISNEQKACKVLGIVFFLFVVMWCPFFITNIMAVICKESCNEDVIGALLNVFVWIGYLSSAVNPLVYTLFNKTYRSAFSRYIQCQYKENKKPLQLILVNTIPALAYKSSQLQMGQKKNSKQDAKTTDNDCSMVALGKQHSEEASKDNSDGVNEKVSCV
H1, sequence (P35367 whole entry): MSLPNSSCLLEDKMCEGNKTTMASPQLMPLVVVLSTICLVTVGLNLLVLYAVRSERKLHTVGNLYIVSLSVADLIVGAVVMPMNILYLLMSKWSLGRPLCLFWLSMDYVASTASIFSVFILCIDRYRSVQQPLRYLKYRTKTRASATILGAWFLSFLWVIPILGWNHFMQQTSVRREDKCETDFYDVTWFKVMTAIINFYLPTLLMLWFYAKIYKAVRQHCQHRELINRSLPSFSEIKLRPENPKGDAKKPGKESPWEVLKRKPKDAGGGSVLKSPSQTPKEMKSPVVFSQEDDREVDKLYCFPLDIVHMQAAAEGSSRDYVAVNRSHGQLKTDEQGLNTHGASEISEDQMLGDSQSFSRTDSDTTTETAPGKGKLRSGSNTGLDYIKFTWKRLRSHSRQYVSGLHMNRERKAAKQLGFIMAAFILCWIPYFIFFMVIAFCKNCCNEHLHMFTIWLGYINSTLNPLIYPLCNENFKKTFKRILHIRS
5-HT7A, sequence (P34969 1-445 isoform P34969-2): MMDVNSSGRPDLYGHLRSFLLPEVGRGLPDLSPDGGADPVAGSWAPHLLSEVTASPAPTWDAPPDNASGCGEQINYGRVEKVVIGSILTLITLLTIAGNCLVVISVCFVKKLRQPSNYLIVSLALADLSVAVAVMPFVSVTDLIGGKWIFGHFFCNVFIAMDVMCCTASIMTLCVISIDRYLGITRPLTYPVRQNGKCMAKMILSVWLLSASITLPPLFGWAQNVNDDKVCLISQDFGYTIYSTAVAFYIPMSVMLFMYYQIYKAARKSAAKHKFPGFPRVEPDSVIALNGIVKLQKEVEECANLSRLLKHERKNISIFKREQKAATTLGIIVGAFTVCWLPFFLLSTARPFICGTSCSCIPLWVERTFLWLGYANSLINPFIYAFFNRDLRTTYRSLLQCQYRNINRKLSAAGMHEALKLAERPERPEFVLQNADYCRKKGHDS

Row | Compound | time of peak HTR effects (C57BL/6J mice [1]) | Emax(HTR events/30 min) (C57BL/6J mice [1]) | effect on locomotor activity (in words) (C57BL/6J mice [2]) | HTR activity (in words) (C57BL/6J mice [1]) | 5-HT2C functional activity (in words) (5-HT2C receptor) | further results
1 | C=CCNCCc1c[nH]c2cccc(O)c12.C=CCNCCc1c[nH]c2cccc(O)c12.O=C(O)/C=C/C(=O)O [4-HO-NALT, 3-(2-(Allylamino)ethyl)-1H-indol-4-ol Hemifumarate] | 5 to 15 min | 77 HTR events/30 min and 76.6 HTR events/30 min | – | – | – | Ki (H1): 467 nM; Emax (% 5-HT) 5-HT2B calcium flux (5-HT2B receptor): 88 % 5-HT
2 | O=C(O)/C=C/C(=O)O.Oc1cccc2[nH]cc(CCNCc3ccccc3)c12 [4-HO-NBnT, 3-(2-(Benzylamino)ethyl)-1H-indol-4-ol Fumarate] | 5 to 15 min | 26.1 HTR events/30 min | reduced the total locomotor activity | – | – | decrease in HTR potency relative to psilocin (C57BL/6J mice [1]; mg/kg basis): 10 fold; Emax (5-HT2A receptor): 70%; Emax (% 5-HT) 5-HT2B calcium flux (5-HT2B receptor): 11 % 5-HT
3 | CCNCCc1c[nH]c2cccc(O)c12.CCNCCc1c[nH]c2cccc(O)c12.O=C(O)CCC(=O)O [4-HO-NET, 3-(2-(Ethylamino)ethyl)-1H-indol-4-ol Hemisuccinate] | 15 to 25 min | 39.8 HTR events/30 min | reduced the total locomotor activity | – | – | delay of maximum HTR occurrence compared to 4-HO-NALT (C57BL/6J mice [1]; at equivalent doses): 10 min
4 | CCCNCCc1c[nH]c2cccc(O)c12.CCCNCCc1c[nH]c2cccc(O)c12.O=C(O)/C=C/C(=O)O [4-HO-NPT, 3-(2-(Propylamino)ethyl)-1H-indol-4-ol Hemifumarate] | 5 to 15 min | 52 HTR events/30 min and 52.1 HTR events/30 min | reduced the total locomotor activity | – | – | ED50(mg/kg s.c.) for HTR (C57BL/6J mice [1]): 2.9 mg/kg
5 | O=C(O)/C=C/C(=O)O.Oc1cccc2[nH]cc(CCNC3CCCCC3)c12 [4-HO-NcHT, 3-(2-(Cyclohexylamino)ethyl)-1H-indol-4-ol Fumarate] | – | – | – | inactive | inactive | 5-HT1B agonist activity Tango (in words) (5-HT1B): inactive
6 | CC(C)NCCc1c[nH]c2cccc(O)c12.O=C(O)/C=C/C(=O)O [4-HO-NiPT, 3-(2-(Isopropylamino)ethyl)-1H-indol-4-ol Fumarate] | 15 to 25 min | 27 HTR events/30 min and 27.5 HTR events/30 min | – | – | weak partial agonists | ED50(mg/kg s.c.) for HTR (C57BL/6J mice [1]): 3.3 mg/kg; hypothermia Emax (C57BL/6J mice [3]): −1.7 °C
7 | CCCCNCCc1c[nH]c2cccc(O)c12.O=C(O)/C=C/C(=O)O [4-HO-NnBT, 3-(2-(Butylamino)ethyl)-1H-indol-4-ol Fumarate] | – | – | reduced the total locomotor activity | inactive | weak partial agonists | EC50 (5-HT7A): 1000 nM
8 | CC(C)(C)NCCc1c[nH]c2cccc(O)c12.CC(C)(C)NCCc1c[nH]c2cccc(O)c12.O=C(O)/C=C/C(=O)O [4-HO-NtBT, 3-(2-(tert-Butylamino)ethyl)-1H-indol-4-ol Hemifumarate] | – | – | – | inactive | inactive | 5-HT1B agonist activity Tango (in words) (5-HT1B): inactive
9 | CNCCc1c[nH]c2cccc(O)c12 [norpsilocin, 4-hydroxy-N-methyltryptamine] | – | – | – | – | – | ED50(mg/kg s.c.) for HTR (C57BL/6J mice [4]; [5]): >30 mg/kg; HTR activity (in words) (C57BL/6J mice [4]; same assay setup): failed to induce psychedelic-like HTR activity
10 | CN(C)CCc1c[nH]c2cccc(O)c12 [psilocin, 4-hydroxy-N,N-dimethyltryptamine] | – | – | – | – | – | reported HTR ED50 potency (C57BL/6J mice [4]): 0.11 to 0.17 mg/kg; ED50(mg/kg s.c.) for HTR (C57BL/6J mice [4]; [5]): 0.11 mg/kg; Emax(HTR events/30 min) (C57BL/6J mice [4]; [5]): 23 HTR events/30 min
